Columns and labels:
[1] = system: Italian ryegrass; test: Test Example 5: herbicidal effect by foliage application, plastic box (Table 20, symbol K); assay type: in vivo, Italian ryegrass (Lolium multiflorum); settings: foliage application, 320 g/ha, evaluated three weeks after application
In short: (§1)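 Foliar spray test: emulsion formulation diluted in water to a set application rate, sprayed onto 14-day-old plants raised in diluvial soil at 25° C to 30° C under glass. Both herbicidal effect and crop effect rated visually three weeks later.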

[2] = system: velvetleaf; test: Test Example 4: herbicidal effect by soil treatment (Table 19, symbol M); assay type: in vivo, velvetleaf (Abutilon theophrasti); settings: amount of applied herbicide 320 g/ha
In short: (§2)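 Step 1: sow seeds in sterilized diluvial soil, cover ~1.5 cm. Step 2: spray diluted emulsion onto soil surface at predetermined rate. Step 3: greenhouse, 25–30° C, three weeks. Step 4: grade effect on each plant by earlier criteria.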

[3] = system: lambsquarters; test: Test Example 4: herbicidal effect by soil treatment (Table 19, symbol O); assay type: in vivo, lambsquarters (Chenopodium album); settings: amount of applied herbicide 320 g/ha
In short: as §2

[4] = system: persian speedwell; test: Test Example 4: herbicidal effect by soil treatment (Table 19, symbol R); assay type: in vivo, Persian speedwell (Veronica persica); settings: amount of applied herbicide 320 g/ha
In short: as §2

[5] = system: wild oat; test: Test Example 5: herbicidal effect by foliage application, plastic box (Table 20, symbol I); assay type: in vivo, wild oat (Avena fatua); settings: foliage application, 320 g/ha, evaluated three weeks after application
In short: as §1

[6] = system: persian speedwell; test: Test Example 5: herbicidal effect by foliage application, plastic box (Table 20, symbol R); assay type: in vivo, Persian speedwell (Veronica persica); settings: foliage application, 320 g/ha, evaluated three weeks after application
In short: as §1

[7] = system: windgrass; test: Test Example 4: herbicidal effect by soil treatment (Table 19, symbol L); assay type: in vivo, windgrass (Apera spica-venti); settings: amount of applied herbicide 320 g/ha
In short: as §2

[8] = system: barnyard grass; test: Test Example 4: herbicidal effect by soil treatment (Table 19, symbol H); assay type: in vivo, barnyard grass (Echinochloa crus-galli); settings: amount of applied herbicide 320 g/ha
In short: as §2

[9] = system: chickweed; test: Test Example 5: herbicidal effect by foliage application, plastic box (Table 20, symbol P); assay type: in vivo, common chickweed (Stellaria media); settings: foliage application, 320 g/ha, evaluated three weeks after application
In short: as §1

[10] = system: wild oat; test: Test Example 4: herbicidal effect by soil treatment (Table 19, symbol I); assay type: in vivo, wild oat (Avena fatua); settings: amount of applied herbicide 320 g/ha
In short: as §2

[11] = system: Italian ryegrass; test: Test Example 4: herbicidal effect by soil treatment (Table 19, symbol K); assay type: in vivo, Italian ryegrass (Lolium multiflorum); settings: amount of applied herbicide 320 g/ha
In short: as §2

[12] = system: windgrass; test: Test Example 5: herbicidal effect by foliage application, plastic box (Table 20, symbol L); assay type: in vivo, windgrass (Apera spica-venti); settings: foliage application, 320 g/ha, evaluated three weeks after application
In short: as §1

[13] = system: green foxtail; test: Test Example 5: herbicidal effect by foliage application, plastic box (Table 20, symbol G); assay type: in vivo, green foxtail (Setaria viridis); settings: foliage application, 320 g/ha, evaluated three weeks after application
In short: as §1

[14] = system: southern crabgrass; test: Test Example 4: herbicidal effect by soil treatment (Table 19, symbol F); assay type: in vivo, southern crabgrass (Digitaria ciliaris); settings: amount of applied herbicide 320 g/ha
In short: as §2

[15] = system: rice flat sedge; test: Test Example 3: herbicidal effect by foliage application, Wagner pot (Table 18, symbol E); assay type: in vivo, rice flat sedge (Cyperus iria); settings: amount of applied herbicide 320 g/ha
In short: (§3)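 Plants were sown in alluvial soil held under 0.1–0.5 cm standing water and grown 14 days in a greenhouse at 25–30 °C. An emulsifiable formulation, water-diluted to the set dose, was then sprayed onto the foliage, and effects were scored three weeks later using previously defined criteria.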

[16] = system: redroot pigweed; test: Test Example 4: herbicidal effect by soil treatment (Table 19, symbol N); assay type: in vivo, redroot pigweed (Amaranthus retroflexus); settings: amount of applied herbicide 320 g/ha
In short: as §2

[17] = system: velvetleaf; test: Test Example 5: herbicidal effect by foliage application, plastic box (Table 20, symbol M); assay type: in vivo, velvetleaf (Abutilon theophrasti); settings: foliage application, 320 g/ha, evaluated three weeks after application
In short: as §1

[18] = system: barnyard grass; test: Test Example 5: herbicidal effect by foliage application, plastic box (Table 20, symbol H); assay type: in vivo, barnyard grass (Echinochloa crus-galli); settings: foliage application, 320 g/ha, evaluated three weeks after application
In short: as §1

[19] = system: blackgrass; test: Test Example 5: herbicidal effect by foliage application, plastic box (Table 20, symbol J); assay type: in vivo, blackgrass (Alopecurus myosuroides); settings: foliage application, 320 g/ha, evaluated three weeks after application
In short: as §1

[20] = system: lambsquarters; test: Test Example 5: herbicidal effect by foliage application, plastic box (Table 20, symbol O); assay type: in vivo, lambsquarters (Chenopodium album); settings: foliage application, 320 g/ha, evaluated three weeks after application
In short: as §1

[21] = system: chickweed; test: Test Example 4: herbicidal effect by soil treatment (Table 19, symbol P); assay type: in vivo, common chickweed (Stellaria media); settings: amount of applied herbicide 320 g/ha
In short: as §2

[22] = system: blackgrass; test: Test Example 4: herbicidal effect by soil treatment (Table 19, symbol J); assay type: in vivo, blackgrass (Alopecurus myosuroides); settings: amount of applied herbicide 320 g/ha
In short: as §2

[23] = system: Chinese sprangletop; test: Test Example 3: herbicidal effect by foliage application, Wagner pot (Table 18, symbol D); assay type: in vivo, chinese sprangletop (Leptochloa chinensis); settings: amount of applied herbicide 320 g/ha
In short: as §3

[24] = system: barnyard grass; test: Test Example 3: herbicidal effect by foliage application, Wagner pot (Table 18, symbol H); assay type: in vivo, barnyard grass (Echinochloa crus-galli); settings: amount of applied herbicide 320 g/ha
In short: as §3

[25] = system: green foxtail; test: Test Example 4: herbicidal effect by soil treatment (Table 19, symbol G); assay type: in vivo, green foxtail (Setaria viridis); settings: amount of applied herbicide 320 g/ha
In short: as §2

[26] = system: redroot pigweed; test: Test Example 5: herbicidal effect by foliage application, plastic box (Table 20, symbol N); assay type: in vivo, redroot pigweed (Amaranthus retroflexus); settings: foliage application, 320 g/ha, evaluated three weeks after application
In short: as §1

[27] = system: southern crabgrass; test: Test Example 5: herbicidal effect by foliage application, plastic box (Table 20, symbol F); assay type: in vivo, southern crabgrass (Digitaria ciliaris); settings: foliage application, 320 g/ha, evaluated three weeks after application
In short: as §1

Structure (SMILES)	herbicidal effect on K: Italian ryegrass (criteria 0-5) [1]	M: velvetleaf, herbicidal effect rating [2]	O: lambsquarters, herbicidal effect rating [3]	R: persian speedwell, herbicidal effect rating [4]	herbicidal effect on I: wild oat (criteria 0-5) [5]	herbicidal effect on R: persian speedwell (criteria 0-5) [6]	L: windgrass, herbicidal effect rating [7]	H: barnyard grass, herbicidal effect rating [8]	herbicidal effect on P: chickweed (criteria 0-5) [9]	I: wild oat, herbicidal effect rating [10]	K: Italian ryegrass, herbicidal effect rating [11]	herbicidal effect on L: windgrass (criteria 0-5) [12]	herbicidal effect on G: green foxtail (criteria 0-5) [13]	F: southern crabgrass, herbicidal effect rating [14]	herbicidal effect on E: rice flat sedge [15]	N: redroot pigweed, herbicidal effect rating [16]	herbicidal effect on M: velvetleaf (criteria 0-5) [17]	herbicidal effect on H: barnyard grass (criteria 0-5) [18]	herbicidal effect on J: blackgrass (criteria 0-5) [19]	herbicidal effect on O: lambsquarters (criteria 0-5) [20]	further results
COc1ccccc1-c1sc2ccc(NC(=O)OC(C)(C)C)cc2c1-c1c(O)c(C)nn(C)c1=O [2-181]	0 (Herbicidal rate of 5% or less (almost no effect))	0 (Herbicidal rate of 5% or less (almost no effect))	4 (Herbicidal rate of 70% or more and less than 90%)	4 (Herbicidal rate of 70% or more and less than 90%)	0 (Herbicidal rate of 5% or less (almost no effect))	5 (Herbicidal rate of 90% or more (almost completely withered))	0 (Herbicidal rate of 5% or less (almost no effect))	0 (Herbicidal rate of 5% or less (almost no effect))	5 (Herbicidal rate of 90% or more (almost completely withered))	0 (Herbicidal rate of 5% or less (almost no effect))	0 (Herbicidal rate of 5% or less (almost no effect))	0 (Herbicidal rate of 5% or less (almost no effect))	1 (Herbicidal rate of 5% or more and less than 20%)	0 (Herbicidal rate of 5% or less (almost no effect))	0 (Herbicidal rate of 5% or less (almost no effect))	3 (Herbicidal rate of 40% or more and less than 70%)	3 (Herbicidal rate of 40% or more and less than 70%)	0 (Herbicidal rate of 5% or less (almost no effect))	0 (Herbicidal rate of 5% or less (almost no effect))	4 (Herbicidal rate of 70% or more and less than 90%)	P: chickweed, herbicidal effect rating [21]: 4 (Herbicidal rate of 70% or more and less than 90%); J: blackgrass, herbicidal effect rating [22]: 0 (Herbicidal rate of 5% or less (almost no effect)); herbicidal effect on D: Chinese sprangletop [23]: 3 (Herbicidal rate of 40% or more and less than 70%); herbicidal effect on H: barnyard grass [24]: 2 (Herbicidal rate of 20% or more and less than 40%); G: green foxtail, herbicidal effect rating [25]: 0 (Herbicidal rate of 5% or less (almost no effect)); herbicidal effect on N: redroot pigweed (criteria 0-5) [26]: 5 (Herbicidal rate of 90% or more (almost completely withered)); herbicidal effect on F: southern crabgrass (criteria 0-5) [27]: 0 (Herbicidal rate of 5% or less (almost no effect))
CCCC(=O)Oc1c(C)nn(C)c(=O)c1-c1c(-c2cccc(OCC)c2)sc2ccc(F)cc12 [2-212]	4 (Herbicidal rate of 70% or more and less than 90%)	0 (Herbicidal rate of 5% or less (almost no effect))	1 (Herbicidal rate of 5% or more and less than 20%)	4 (Herbicidal rate of 70% or more and less than 90%)	0 (Herbicidal rate of 5% or less (almost no effect))	5 (Herbicidal rate of 90% or more (almost completely withered))	0 (Herbicidal rate of 5% or less (almost no effect))	5 (Herbicidal rate of 90% or more (almost completely withered))	5 (Herbicidal rate of 90% or more (almost completely withered))	0 (Herbicidal rate of 5% or less (almost no effect))	3 (Herbicidal rate of 40% or more and less than 70%)	3 (Herbicidal rate of 40% or more and less than 70%)	5 (Herbicidal rate of 90% or more (almost completely withered))	3 (Herbicidal rate of 40% or more and less than 70%)	4 (Herbicidal rate of 70% or more and less than 90%)	3 (Herbicidal rate of 40% or more and less than 70%)	3 (Herbicidal rate of 40% or more and less than 70%)	4 (Herbicidal rate of 70% or more and less than 90%)	0 (Herbicidal rate of 5% or less (almost no effect))	3 (Herbicidal rate of 40% or more and less than 70%)	P: chickweed, herbicidal effect rating [21]: 1 (Herbicidal rate of 5% or more and less than 20%); J: blackgrass, herbicidal effect rating [22]: 0 (Herbicidal rate of 5% or less (almost no effect)); herbicidal effect on D: Chinese sprangletop [23]: 3 (Herbicidal rate of 40% or more and less than 70%); herbicidal effect on H: barnyard grass [24]: 5 (Herbicidal rate of 90% or more (almost completely withered)); G: green foxtail, herbicidal effect rating [25]: 4 (Herbicidal rate of 70% or more and less than 90%); herbicidal effect on N: redroot pigweed (criteria 0-5) [26]: 5 (Herbicidal rate of 90% or more (almost completely withered)); herbicidal effect on F: southern crabgrass (criteria 0-5) [27]: 5 (Herbicidal rate of 90% or more (almost completely withered))

Reference: patent publication US20230085307A1, “PYRIDAZINONE COMPOUND AND HERBICIDE” (NISSAN CHEMICAL CORPORATION, priority 2019, published 2023)
